Test results reported in patent publication US11568956B2, “Methods for identifying inhibitors of amyloid protein aggregation” (Treventis Corporation, priority 2008, dated 2023).

Target: T1, Aβ 1-40 (Homo sapiens, UniProt P05067)
T1 construct: ThT aggregation assays of Aβ 1-40 and alpha synuclein
Test: ThT aggregation assay of Aβ 1-40
Type: biochemical
Procedure: The anti-amyloid activity of these compounds was evaluated by ThT aggregation assays of Aβ 1-40 and alpha synuclein, as set forth below. The column “A-Syn” below is a functional ThT aggregation assay of alpha synuclein.

T1 sequence (P05067 672-711 limits assumed): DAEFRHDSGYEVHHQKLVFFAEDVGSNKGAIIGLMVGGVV

| SMILES | IC50 [µM] |
| --- | --- |
| COc1ccc(CNCc2ccc(F)cc2)cc1OC | > 100 |
| COc1ccc2cc(C(C)N)ccc2c1 (stereo not drawn) | > 100 |
| c1ccc2c(c1)CCCC2NCc1ccncc1 (stereo not drawn) | > 100 |
| COc1ccc(CC(=O)Nc2ccc(S(=O)(=O)Nc3nc(C)cc(C)n3)cc2)cc1 | > 50 |
| COc1ccc(NS(=O)(=O)c2ccc(NS(=O)(=O)c3cccs3)cc2)c(OC)c1 | > 50 |
| COc1ccc(NS(=O)(=O)c2ccc(NS(=O)(=O)c3ccc(Br)s3)cc2)c(OC)c1 | > 50 |
| COc1ccc(C2(C(=O)Nc3ccc(S(=O)(=O)Nc4ncccn4)cc3)CCCC2)cc1OC | > 50 |

More lines, now with the values ahead:

| IC50 [µM] | SMILES |
| --- | --- |
| > 20 | COc1ccc2ccccc2c1/C=N/c1ccc(S(N)(=O)=O)cc1 |
| > 20 | O=C(COc1ccccc1)Nc1ccc2c(c1)C(=O)NC2=O |
| > 20 | COc1ccc(N(C)S(=O)(=O)c2ccc(NS(=O)(=O)c3cccs3)cc2)c(OC)c1 |
| > 20 | COc1ccccc1N1CCN(C(=O)CN(c2ccc(F)cc2)S(=O)(=O)c2ccccc2)CC1 |
| > 20 | COc1ccccc1NC(=O)C1CC(O)CN1C(=O)OCc1ccccc1 (stereo not drawn) |
